Source: patent US10059695B2, “Cot modulators and methods of use thereof” (Gilead Sciences, Inc., priority 2016, dated 2018)

Experiments:
[1] = target: Human Cot (Homo sapiens (Human), UniProt P41279); assay: High Throughput Cot Biochemical Assay (KinEASE TR-FRET); details: recombinant human Cot catalytic domain, 400 μM ATP
Experimental: Example 24: High Throughput Cot Biochemical Assay
Human Cot enzyme activity was measured using KinEASE (Cisbio), a time-resolved fluorescence resonance energy transfer (TR-FRET) immunoassay. In this assay, Cot-catalyzes the phosporylation of a XL665-labeled peptide substrate. Europium conjugated […] specific antibody binds the resulting phosphorylated peptide. Formation of phosphorylated peptide is quantified by TR-FRET with Europium as the donor and XL665 the acceptor in a 2-step endpoint assay. Purified recombinant human Cot catalytic domain (30-397 amino acids) was purchased from Carna Biosciences. In brief, test compounds serially diluted in DMSO were delivered into Proxy white, low volume, 384 well plates using the Echo 550 acoustic liquid dispenser (Labcyte®). Cot enzyme and substrates were dispensed into assay plates using a Multi-Flo (Bio-Tek Instruments). The standard 5 μL reaction mixture contained 400 μM ATP, 1 μM STK3 peptide, 5 nM of Cot in reaction buffer (10 mM MOPS, pH 7.0, 0.02% NaN3, 0.5 mg/mL BSA, 10 mM MgOAc, 1 mM DTT, 0.025% NP-40, 1.5% glycerol) and 0.1% DMSO. After 2.5 hrs of incubation at room temperature, 5 μL of Stop and Detect Solution (1:200 Europium Cryptate labeled anti-phosphorylated peptide antibody solution and 125 nM strepavidin-XL665 Tracer in a 50 mM Hepes pH 7.0 detection buffer containing sufficient EDTA) was added. The plate was then further incubated for 120 minutes at room temperature and read using an Envision 2103 Multilabeled reader (PerkinElmer) with excitation/emission/FRET emission at 340 nm/615 nm/665 nm, respectively. Fluorescence intensities at 615 nm and 665 nm emission wavelengths were expressed as a ratio (665 nm/615 nm).

[2] = test system: TNFα; assay: Cot Monocyte TNFα Cell Based Assay; details: LPS-stimulated cryopreserved human monocytes, TNFα by TR-FRET
Experimental: Example 23: Cot Monocyte TNFα Cell Based Assay
Cryopreserved human monocytes (Stem Cell Technologies) were thawed, diluted in RPMI with Glutamax (10 mM HEPES, 1× Pen-Strep, 55 μM β-mercaptoethanol, 1 mM Sodium pyruvate) media containing 10% FBS to 0.125×10^6 cells/ml and recovered at 37° C. for 2 hours. The cell suspension was then plated at a density of 5,000 cells/well onto black 384 well Greiner clear bottom plates. Plates were pre-spotted with test compounds and serially diluted in DMSO where 200 nL/well were delivered using the Echo 550 acoustic liquid dispenser (Labcyte®) for a final DMSO concentration of 0.5%. Plated cells were treated with compound for 1 hour at 37° C. Cells were then stimulated with 50 μg/ml of LPS (Sigma) excluding outside columns of plate used for unstimulated cell control wells. Cells were incubated for an additional 4 hours at 37° C. Cells were then spun out of the media and 5 μl of sample were taken and analyzed for total TNFα content using the TR-FRET Human TNFα detection system (CisBio). This system utilizes two labeled antibodies (cryptate and XL665) that bind to two different epitopes of the TNFα molecule and produce FRET signal proportional to the concentration of TNFα in the sample. Detection antibodies are mixed 50:50 and 5 μL were dispensed into each well. Plates were covered with clear seals and incubated at room temp overnight. The following morning plates were read using an Envision 2103 Multilabeled reader (PerkinElmer) with excitation/emission/FRET emission at 340 nm/615 nm/665 nm, respectively. Fluorescence intensities at 615 nm and 665 nm emission wavelengths were expressed as a ratio (665 nm/615 nm). Percent of control was calculated as follows: % Control=100×(RatioSample−Ratio0% stimulation)/(Ratio100% Stimulation−Ratio0% Stimulation) where unstimulated cells (0% stimulation) were the negative control and stimulated cells (100% stimulation) were used as the positive control.

Human Cot, sequence (P41279 30-397): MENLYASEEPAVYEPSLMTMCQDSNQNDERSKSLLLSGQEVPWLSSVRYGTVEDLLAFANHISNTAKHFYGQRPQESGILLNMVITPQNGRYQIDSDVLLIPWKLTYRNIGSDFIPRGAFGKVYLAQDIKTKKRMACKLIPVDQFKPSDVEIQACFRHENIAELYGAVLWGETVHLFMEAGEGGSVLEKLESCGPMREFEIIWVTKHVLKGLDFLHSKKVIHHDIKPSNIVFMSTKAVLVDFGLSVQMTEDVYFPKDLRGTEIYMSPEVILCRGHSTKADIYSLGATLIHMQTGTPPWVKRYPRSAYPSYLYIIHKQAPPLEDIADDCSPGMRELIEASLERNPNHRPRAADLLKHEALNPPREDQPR

SMILES	IC50 [1]	EC50 [2]
[2H][C@@](Nc1cc(Cl)c2ncnc(NCC(C)(C)C)c2c1)(c1cn(CC(=O)O)nn1)c1ccccc1Cl [I-10, (S)-2-(4-(((8-chloro-4-(neopentylamino)quinazolin-6-yl)amino)(2-chlorophenyl)methyl-d)-1H-1,2,3-triazol-1-yl)acetic acid]	13 nM	> 1000 nM
Cn1ccc2c([C@H](Nc3cc(Cl)c4ncnc(NCC(C)(C)C)c4c3)c3cn(C4(C(F)F)CC4)nn3)cccc2c1=O [I-25, (S)-5-(((8-chloro-4-(neopentylamino)quinazolin-6-yl)amino)(1-(1-(difluoromethyl)cyclopropyl)-1H-1,2,3-triazol-4-yl)methyl)-2-methylisoquinolin-1(2H)-one]	2.4 nM	25.5 nM
[2H][C@](Nc1ccc2ncnc(NCC(C)(C)C)c2c1)(c1cccc(C#N)c1)c1cn(C2CC2)nn1 [I-7, (S)-3-((1-cyclopropyl-1H-1,2,3-triazol-4-yl)((4-(neopentylamino)quinazolin-6-yl)amino)methyl-d)benzonitrile]	2.6 nM	102 nM
[2H][C@](Nc1cc(Cl)c2ncnc(NCC(C)(C)C)c2c1)(c1ccc(F)cc1)c1cn(C2(CF)CC2)nn1 [I-16, (S)-8-chloro-N^6-((1-(1-(fluoromethyl)cyclopropyl)-1H-1,2,3-triazol-4-yl)(4-fluorophenyl)methyl-d)-N^4-neopentylquinazoline-4,6-diamine]	3.1 nM	46 nM
CCN1CCC(n2cc([C@@H](Nc3cc(Cl)c4ncnc(Nc5ccc(F)c(Cl)c5)c4c3)c3ccccc3)nn2)CC1 [II-4, (S)-8-chloro-N^4-(3-chloro-4-fluorophenyl)-N^6-((1-(1-ethylpiperidin-4-yl)-1H-1,2,3-triazol-4-yl)(phenyl)methyl) quinazoline-4,6-diamine]	5.9 nM	254 nM
CC(C)(C)CNc1ncnc2c(Br)cc(N[C@H](c3cn(C4(C(F)(F)F)CC4)nn3)c3cccc4ncsc34)cc12 [I-18, (S)-N^6-(benzo[d]thiazol-7-yl(1-(1-(trifluoromethyl)cyclopropyl)-1H-1,2,3-triazol-4-yl)methyl)-8-bromo-N^4-neopentylquinazoline-4,6-diamine]	8 nM	195 nM
[2H][C@](Nc1cc(Cl)c2ncnc(N[C@H](CCC#N)c3ccccc3)c2c1)(c1ccc(F)cc1)c1cn(C2(C(F)(F)F)CC2)nn1 [I-12, (R)-4-((8-chloro-6-(((S)-(4-fluorophenyl)(1-(1-(trifluoromethyl)cyclopropyl)-1H-1,2,3-triazol-4-yl)methyl-d)amino)quinazolin-4-yl)amino)-4-phenylbutanenitrile]	137 nM	> 1000 nM
[2H][C@](c1ccc(F)cc1)(c1cn(C2CC2)nn1)N(CC)c1ccc2ncnc(NCC(C)(C)C)c2c1 [I-6, (S)-N6-((1-cyclopropyl-1H-1,2,3-triazol-4-yl)(4-fluorophenyl)methyl-d)-N6-ethyl-N4-neopentylquinazoline-4,6-diamine]	276 nM	4230 nM
[2H][C@](Nc1ccc2ncnc(NCC(C)(C)C)c2c1)(c1ccc(F)cc1)c1cn(C2CC2)nn1 [I-1, (S)-N^6-((1-cyclopropyl-1H-1,2,3-triazol-4-yl)(4-fluorophenyl)methyl-d)-N^4-neopentylquinazoline-4,6-diamine]	5 nM	101 nM
[2H][C@@](Nc1cc(C#N)c2ncnc(NCC(C)(C)C)c2c1)(c1cn(C2(C#N)CC2)nn1)c1ccccc1Cl [I-20, (S)-6-(((2-chlorophenyl)(1-(1-cyanocyclopropyl)-1H-1,2,3-triazol-4-yl)methyl-d)amino)-4-(neopentylamino) quinazoline-8-carbonitrile]	3.3 nM	35 nM
[2H][C@](Nc1cc(Br)c2ncnc(NCC(C)(C)C)c2c1)(c1ccc(F)cc1)c1cn(C2CC2)nn1 [I-15, (S)-8-bromo-N6-((1-cyclopropyl-1H-1,2,3-triazol-4-yl)(4-fluorophenyl)methyl-d)-N4-neopentylquinazoline-4,6-diamine]	2.6 nM	82 nM
Fc1ccc(Nc2ncnc3c(Cl)cc(N[C@@H](c4ccccc4)c4cn(C5CCNCC5)nn4)cc23)cc1Cl [II-9, (S)-8-chloro-N4-(3-chloro-4-fluorophenyl)-N6-(phenyl(1-(piperidin-4-yl)-1H-1,2,3-triazol-4-yl)methyl) quinazoline-4,6-diamine]	8.3 nM	337 nM
[2H][C@@](Nc1cc(Cl)c2ncnc(NCC(C)(C)C)c2c1)(c1cn(C2CC2)nn1)c1ccccc1Cl [I-9, (S)-8-chloro-N6-((2-chlorophenyl)(1-cyclopropyl-1H-1,2,3-triazol-4-yl)methyl-d)-N4-neopentylquinazoline-4,6-diamine]	4.8 nM	86 nM
Cn1ccc2c([C@H](Nc3cc(C#N)c4ncnc(NCC(C)(C)C)c4c3)c3cn(C4(C(F)F)CC4)nn3)cccc2c1=O [I-24, (S)-6-(((1-(1-(difluoromethyl)cyclopropyl)-1H-1,2,3-triazol-4-yl)(2-methyl-1-oxo-1,2-dihydroisoquinolin-5-yl)methyl)amino)-4-(neopentylamino) quinazoline-8-carbonitrile]	1.2 nM	11.3 nM
Cc1nc(F)ccc1[C@H](Nc1cc(C#N)c2ncnc(NCC(C)(C)C)c2c1)c1cn(C2(C(F)F)CC2)nn1 [I-22, (S)-6-(((1-(1-(difluoromethyl)cyclopropyl)-1H-1,2,3-triazol-4-yl)(6-fluoro-2-methylpyridin-3-yl)methyl)amino)-4-(neopentylamino) quinazoline-8-carbonitrile]	1.7 nM	36 nM
